# Like-named read-outs stand apart in the source and are kept apart here. Where a SMILES comes first, the peptide text is derived from it. Bridges are numbered along the chain shown (N, C = ends). Roman numbers before positions name the chains, in order. Where no end group is shown, it is not given here.
# Legend:
# Assay type in all cases: cell-based, Candida albicans
# C.albicans CCARM 14021 = system: C.albicans CCARM 14021
# Protocol: (§1) To determine the candidacidal activity of the peptides, we used Candida strains obtained from the Culture collection of antimicrobial resistant microbes at Seoul Women’s University in Korea. These included three Candida albicans (CCARM 14020, 14021, 14022), Candida guillermondi and Candida tropicalis. In addition, Candida albicans SC5413 was kindly provided by Dr Jeong-Yoon Kim at the Department of Microbiology & Molecular Biology, Chungnam University, Korea. Yeast were cultured overnight at 30°C in 10 ml of yeast extract-peptone-dextrose (YPD) broth (Qbiogene), then diluted in 10 ml of YPD broth to OD600 = 0.2 and grown for an additional 4 h with shaking at 30°C until OD600 = 0.8 in order to obtain mid-log phase cultures. The peptides (Hst 5, P113, HHP1, HHP2, PH1, PH2, di-PH1, di-PH2, WP1, di-WP2, di-15Hc and di-18Hc) in this study were synthesized by using standard solid-phase synthesis protocols and were purified by reversed-phase high-performance liquid chromatography at Anygen Inc. (Korea). FITC-labeled peptides (F-Hst5, F-P113, F-HHP1, F-di-PH2, F-di-WP2 and F-di-18Hc) were also synthesized by 6-aminohexnoic acid linker at Anygen (Korea) for confocal experiments.
# (§2) The candidacidal activities of the peptides were tested by using standard microdilution plate assays, radial diffusion assays and broth dilution assay slightly modified from the procedure recommended by the National Committee for Clinical Laboratory Standards. For the candidacidal assays, C. albicans cells were grown in YPD medium and washed twice with 10 mM sodium phosphate buffer (NaPB; Na2HPO4, NaH2PO4, pH 7.4). The cells (1 x 10^6) were then mixed with different concentrations of peptides and incubated at 30°C with constant shaking for 60 min. For energy depletion experiments, cells were pre-incubated with 10 mM NaPB containing 5 mM NaN3 at 30°C for 60 min before the addition of peptides. The cell suspensions were diluted in 10 mM NaPB and aliquots of 500 cells were spread onto YPD agar plates then incubated for 24 h at 30°C to visualize the surviving colonies. Cell survival was expressed as a percentage of that for the control, and the loss of viability was calculated as [1 x (number of colonies from peptide-treated cells/number of colonies from control cells)] x 100. Candidacidal assays were performed in triplicate. For the radial diffusion assay, C. albicans cells were grown in YPD medium overnight and washed twice with 10 mM NaPB. Washed yeast-phase C. albicans cells (1 x 10^6 CFU) were trapped in thin underlay gels containing 9 mM sodium phosphate, 1 mM sodium citrate buffer, 1% (wt/vol) agarose (A6013; Sigma), and 0.3 mg of Sabouraud dextrose broth (Difco)/ml. After incubation at 37°C for 3 h, a 10 ml overlay gel of 1% agarose and 6% Sabouraud dextrose broth was poured on the underlay gel and then the plates were incubated overnight at 37°C. The clear-zone diameters were measured to the nearest 0.1 mm and graphed against the peptide concentration. Zone diameters were expressed in units (0.1 mm = 1 unit). For the broth dilution assay, the Candida strains were cultured in LYM broth for 18 h at 30°C. The numbers of yeasts were counted using a hemocytometer. Stock peptide solutions were prepared to a concentration of 320 μg/ml in distilled water, and were then serially diluted twofold, to 5 μg/ml. 100 μl aliquots of the diluted culture media containing candida cells (1 x 10^3) were dispensed into the wells of 96-well polypropylene microtiter plates (Costar 3879, Corning, NY), to which peptide solution (11 μl) was then added. In the experiments conducted to assess the candidacidal activity of peptides in the presence of salt, we used LYM supplemented with 150 mM NaCl for the culture medium, which was mixed with the peptide solution. The antifungal activities were evaluated after 24 h of incubation at 30°C by the observation of visible turbidity the wells. […]
# C.albicans SC5413 = system: C.albicans SC5413
# Protocol: as §1, §2
# C.albicans CCARM 14020 = system: C.albicans CCARM 14020
# Protocol: as §1, §2
# C.albicans CCARM 14022 = system: C.albicans CCARM 14022
# Protocol: as §1, §2
# [1] = NaCl 150 mM, LYM supplemented with 150 mM NaCl, 24 h at 30°C
Molecule,"MICs (C.albicans CCARM 14021; CCARM 14021, 24 h) [µg/mL]",MICs (C.albicans CCARM 14021; [1]),MICs (C.albicans SC5413; [1]),"MICs (C.albicans SC5413; SC5413, 24 h) [µg/mL]","MICs (C.albicans CCARM 14020; CCARM 14020, 24 h) [µg/mL]",MICs (C.albicans CCARM 14020; [1]),"MICs (C.albicans CCARM 14022; CCARM 14022, 24 h) [µg/mL]",MICs (C.albicans CCARM 14022; [1])
AKRHHGYKRKFH-NH2 [P113],4 to 8,32< μg/ml,32< μg/ml,4 to 8,4 to 8,32< μg/ml,8 to 16,32< μg/ml
CC(C)C[C@H](NC(=O)CNC(=O)[C@H](Cc1c[nH]cn1)NC(=O)[C@H](Cc1c[nH]cn1)NC(=O)[C@H](CCCNC(=N)N)NC(=O)[C@H](CCCCN)NC(=O)[C@H](C)N)C(=O)N[C@@H](CC(N)=O)C(=O)N[C@@H](CSSC[C@H](NC(=O)[C@H](CC(N)=O)NC(=O)[C@H](CC(C)C)NC(=O)CNC(=O)[C@H](Cc1c[nH]cn1)NC(=O)[C@H](Cc1c[nH]cn1)NC(=O)[C@H](CCCNC(=N)N)NC(=O)[C@H](CCCCN)NC(=O)[C@H](C)N)C(=O)N[C@@H](C)C(=O)N[C@@H](CCCCN)C(=O)N[C@@H](Cc1ccccc1)C(=O)N[C@@H](Cc1c[nH]cn1)C(N)=O)C(=O)N[C@@H](C)C(=O)N[C@@H](CCCCN)C(=O)N[C@@H](Cc1ccccc1)C(=O)N[C@@H](Cc1c[nH]cn1)C(N)=O [di-PH2] (I: H-AKRHHGLNCAKFH-NH2 / II: H-AKRHHGLNCAKFH-NH2; disulfide I:9-II:9 (inferred); N-terminus assumed),1 to 2,32< μg/ml,32< μg/ml,1 to 2,1 to 2,32< μg/ml,2 to 4,32< μg/ml
"C[C@H](NC(=O)[C@H](Cc1c[nH]cn1)NC(=O)[C@H](CO)NC(=O)[C@@H](N)CC(=O)O)C(=O)N[C@@H](CCCCN)C(=O)N[C@@H](CCCNC(=N)N)C(=O)N[C@@H](Cc1c[nH]cn1)C(=O)N[C@@H](Cc1c[nH]cn1)C(=O)NCC(=O)N[C@@H](Cc1ccc(O)cc1)C(=O)N[C@@H](CCCCN)C(=O)N[C@@H](CCCNC(=N)N)C(=O)N[C@@H](CCCCN)C(=O)N[C@@H](Cc1ccccc1)C(=O)N[C@@H](Cc1c[nH]cn1)C(=O)N[C@@H](CCC(=O)O)C(=O)N[C@@H](CCCCN)C(=O)N[C@@H](Cc1c[nH]cn1)C(=O)N[C@@H](Cc1c[nH]cn1)C(=O)N[C@@H](CO)C(=O)N[C@@H](Cc1c[nH]cn1)C(=O)N[C@@H](CCCNC(=N)N)C(=O)NCC(=O)N[C@@H](Cc1ccc(O)cc1)C(=O)O [Hst 5, Histatin 5]",4 to 8,32< μg/ml,32< μg/ml,8 to 16,8 to 16,32< μg/ml,8 to 16,32< μg/ml

# From paper PMC4769088, “Antifungal Activity and Action Mechanism of Histatin 5-Halocidin Hybrid Peptides against Candida ssp” (PLoS ONE, 2016)
